Measured values published in US12077503B2, “Substituted cyclic amides and their use as herbicides” (FMC CORPORATION, priority 2015, dated 2024).
Read-outs that look alike come from different tables or passages of the source.

Columns and labels:
Assay in all cases: Test A postemergence
Type in all cases: in vivo
[1] = test system: pigweed (Amaranthus retroflexus); conditions: Amaranthus retroflexus, post-emergence, 240 h; for pest or weed control at 125 g/ha: 125 g ai/ha; for pest or weed control at 500 g/ha: 500 g ai/ha, visual injury, approx. 10 d
Summary of the method: (§1)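 Each rating is a visual injury score from 0 to 100 given about 10 d after treatment, judged against untreated controls kept alongside in the greenhouse. In loam soil–sand blend, seeds got a preemergence directed soil spray, while postemergence plants were 2 to 10 cm tall at spraying.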

[2] = test system: barnyardgrass (Echinochloa crus-galli); conditions: Echinochloa crus-galli, post-emergence, 240 h; for pest or weed control at 125 g/ha: 125 g ai/ha; for pest or weed control at 500 g/ha: 500 g ai/ha, visual injury, approx. 10 d
Summary of the method: as §1

[3] = test system: wheat (Triticum aestivum); conditions: Triticum aestivum, post-emergence, 240 h; for plant injury at 125 g/ha: 125 g ai/ha; for plant injury at 500 g/ha: 500 g ai/ha, visual injury, approx. 10 d
Summary of the method: as §1

[4] = test system: ragweed (common ragweed, Ambrosia elatior); conditions: Ambrosia artemisiifolia, post-emergence, 240 h; for pest or weed control at 125 g/ha: 125 g ai/ha; for pest or weed control at 500 g/ha: 500 g ai/ha, visual injury, approx. 10 d
Summary of the method: as §1

[5] = test system: Galium (catchweed bedstraw, Galium aparine); conditions: Galium, post-emergence, 240 h; for pest or weed control at 125 g/ha: 125 g ai/ha; for pest or weed control at 500 g/ha: 500 g ai/ha, visual injury, approx. 10 d
Summary of the method: as §1

corn (Zea mays) = conditions: Zea mays, post-emergence, 240 h; for Corn plant response rating (crop injury, 0 = no effect, 100 = complete kill) at 125 g/ha / plant injury at 125 g/ha: 125 g ai/ha; for Corn plant response rating (crop injury, 0 = no effect, 100 = complete kill) at 125 g/ha: postemergence, visual injury after approximately 10 d; for Corn plant response rating (crop injury, 0 = no effect, 100 = complete kill) at 125 g/ha / Corn plant response rating (crop injury, 0 = no effect, 100 = complete kill) at 500 g/ha: 0 to 100 scale (0 no effect, 100 complete control); for plant injury at 125 g/ha / Corn plant response rating (crop injury, 0 = no effect, 100 = complete kill) at 500 g/ha: Postemergence; for plant injury at 125 g/ha: visual rating about 10 d after treatment, read-out: Corn plant response rating (0 to 100 scale); for Corn plant response rating (crop injury, 0 = no effect, 100 = complete kill) at 500 g/ha: 500 g ai/ha, visual injury, approx. 10 d
Summary of the method: as §1

[6] = postemergence, visual injury after approximately 10 d, 0 to 100 scale (0 no effect, 100 complete control), read-out: Plant response rating, Pigweed
[7] = postemergence, visual injury after approximately 10 d, 0 to 100 scale (0 no effect, 100 complete control), read-out: Plant response rating, Barnyardgrass
[8] = postemergence, visual injury after approximately 10 d, 0 to 100 scale (0 no effect, 100 complete control), read-out: Plant response rating, Wheat
[9] = postemergence, visual injury after approximately 10 d, 0 to 100 scale (0 no effect, 100 complete control), read-out: Plant response rating, Ragweed
[10] = postemergence, visual injury after approximately 10 d, 0 to 100 scale (0 no effect, 100 complete control), read-out: Plant response rating, Galium
[11] = Postemergence, visual rating about 10 d after treatment, read-out: Pigweed plant response rating (0 to 100 scale)
[12] = Postemergence, 0 to 100 scale (0 no effect, 100 complete control), read-out: Plant response rating, Pigweed
[13] = Postemergence, visual rating about 10 d after treatment, read-out: Barnyardgrass plant response rating (0 to 100 scale, 0 no effect, 100 complete control)
[14] = Postemergence, 0 to 100 scale (0 no effect, 100 complete control), read-out: Plant response rating, Barnyardgrass
[15] = Postemergence, visual rating about 10 d after treatment, read-out: Wheat plant response rating (0 to 100 scale)
[16] = Postemergence, 0 to 100 scale (0 no effect, 100 complete control), read-out: Plant response rating, Wheat
[17] = Postemergence, visual rating about 10 d after treatment, read-out: Ragweed plant response rating (0 to 100 scale)
[18] = Postemergence, 0 to 100 scale (0 no effect, 100 complete control), read-out: Plant response rating, Ragweed
[19] = Postemergence, visual rating about 10 d after treatment, read-out: Galium plant response rating (0 to 100 scale)
[20] = Postemergence, 0 to 100 scale (0 no effect, 100 complete control), read-out: Plant response rating, Galium

Row | Structure (SMILES) | pest or weed control at 125 g/ha [1, 6] [%] | pest or weed control at 125 g/ha [2, 7] [%] | plant injury at 125 g/ha [3, 8] [%] | pest or weed control at 125 g/ha [4, 9] [%] | pest or weed control at 125 g/ha [5, 10] [%] | Corn plant response rating (crop injury, 0 = no effect, 100 = complete kill) at 125 g/ha (corn (Zea mays)) [%] | pest or weed control at 125 g/ha [1, 11] [%] | pest or weed control at 500 g/ha [1, 12] [%] | pest or weed control at 125 g/ha [2, 13] [%] | pest or weed control at 500 g/ha [2, 14] [%] | plant injury at 125 g/ha [3, 15] [%] | plant injury at 500 g/ha [3, 16] [%] | pest or weed control at 125 g/ha [4, 17] [%] | pest or weed control at 500 g/ha [4, 18] [%] | pest or weed control at 125 g/ha [5, 19] [%] | pest or weed control at 500 g/ha [5, 20] [%] | plant injury at 125 g/ha (corn (Zea mays)) [%] | Corn plant response rating (crop injury, 0 = no effect, 100 = complete kill) at 500 g/ha (corn (Zea mays)) [%]
1 | CN1C[C@H](c2ccc(C#N)cc2)[C@@H](C(=O)Nc2cccc(F)c2F)C1=O (racemic) [Compound 775] | 0 | 50 | 20 | 20 | 40 | 20 |  |  |  |  |  |  |  |  |  |  |  | 
2 | CN1C[C@H](c2cccc(S(C)(=O)=O)c2)[C@@H](C(=O)Nc2cccc(F)c2F)C1=O (racemic) [Compound 777] | 0 | 70 | 30 | 0 | 0 | 40 |  |  |  |  |  |  |  |  |  |  |  | 
3 | CO[C@]1(C(=O)Nc2cccc(F)c2F)C(=O)N(C)C[C@@H]1c1ccc(C(F)(F)F)cc1 (racemic) [Compound 1334] |  |  |  |  |  |  | 30 | 40 | 0 | 50 | 0 | 0 | 0 | 20 | 50 | 50 | 0 | 30
4 | O=C1NC[C@H](c2cc(C(F)(F)F)ccn2)[C@H]1C(=O)Nc1cccc(F)c1F (racemic) [Compound 1376] |  |  |  |  |  |  | 0 | 20 | 90 | 90 | 0 | 60 | 0 | 0 | 0 | 30 | 0 | 30
5 | COc1ccc([C@H]2CNC(=O)[C@@H]2C(=O)Nc2ccccc2S(C)(=O)=O)cc1F [Compound 721] | 0 | 10 | 0 | 0 | 20 | 0 |  |  |  |  |  |  |  |  |  |  |  | 
6 | O=C1NC[C@H](c2ccc(C3CC3)cc2)[C@H]1C(=O)Nc1ccccc1F [Compound 727] | 0 | 80 | 0 | 0 | 0 | 0 |  |  |  |  |  |  |  |  |  |  |  | 
7 | Cc1ccc([C@H]2CN(C)C(=O)[C@@H]2C(=O)Nc2cccc(F)c2F)c(F)c1 [Compound 730] | 20 | 100 | 30 | 20 | 50 | 20 |  |  |  |  |  |  |  |  |  |  |  | 
8 | Cc1ccc([C@H]2CN(C)C(=O)[C@@H]2C(=O)Nc2ccccc2S(C)(=O)=O)cc1C [Compound 734] | 0 | 90 | 50 | 10 | 30 | 40 |  |  |  |  |  |  |  |  |  |  |  | 
9 | CCc1cc(CC)cc([C@H]2CN(C)C(=O)[C@@H]2C(=O)Nc2ccccc2F)c1 [Compound 735] | 20 | 90 | 50 | 0 | 40 | 80 |  |  |  |  |  |  |  |  |  |  |  | 
